The values that follow come from patent US20100068816A1, “Genetically engineered herbicide resistance for maintaining axenic cultures” (TransAlgae Ltd, priority 2008, published 2010).

Data set [1] relates to zooplankton (e.g. Arthemia sp.). The data set is described as follows: Zooplankton survivorship under CO2 and herbicide treatment. In kind it is in vivo. As to conditions: microtubule-inhibiting herbicides. As for the experimental part:
(§1) To quantify CO2 effects on plankton survivorship we incubate 81 L vessels of the algae Pavlova lutheri, Isochrysis CS-177, Nannochloropsis oculata CS-179, Nannochloropsis like CS-246, Nannochloropsis salina CS-190, Tetraselmis suecica, Tetraselmis chuii and Nannochloris sp or cyanobacteria Synechococcus PCC7002, Synechococcus WH-7803, Thermosynechococcus elongatus BP-1 with or without zooplankton (e.g. Arthemia sp.). The control and zooplankton treated containers are bubbled with air, 1%, 5% and 14% CO2 together with specific herbicides that are applied at the appropriate concentrations. Algal cell density and zooplankton counts are done on each treatment over a 10 day period. Throughout the experiment pH is maintained at 7.0-8.0, which allows phytoplankton growth.

Data set [2] relates to wild type algae and the cyanobacteria. Put plainly: Effect of microtubule-inhibiting herbicides on wild type algae and cyanobacteria. Here is the method: as §1
The subject of data set [3] is Nannochloropsis cells transformed with pSI103-PDS. The data set is described as follows: Cross resistance of Nannochloropsis cells transformed with pSI103-PDS. In kind it is cell-based, Nannochloropsis oculata. The note with it: Nannochloropsis transformants selected on ASW + 1 μM flurochloridone. As for the experimental part:
FIG. 3. Nannochloropsis cells were transformed with the pSI103-PDS construct (right panel) as well as control cells which were not transformed with DNA (left panel) plated on artificial sea water (ASW)+1 μM flurochloridone.
Nannochloropsis oculata CS179 cells were transformed with the PSI103-PDS construct using the ECM 830 electroporator (BTX Instrument Division, Harvard Apparatus, Inc., Holliston, Mass., USA) as described above. After transformation algae were plated on ASW+F/2 media (http://www.marine.csiro.au/microalgae/methods/) containing 10^−7M flurochloridone. After two weeks, algal colonies both from the transformation and the mock were replated on ASW+10^−6M flurochloridone plates. This allowed differentiation between false positives and true resistant clones (FIG. 3). This material was used in Example 4.

For another data set, the system named is wild-type algae. The data set is described as follows: Butafenacil dose response on wild type algae and cyanobacteria (FIG. 11). In kind it is cell-based. As to conditions: 10^−6M or 10^−7M. As for the experimental part:
FIG. 11 A Chemical structure of butafenacil. B. Butafenacil dose response on wild type algae and cyanobacteria. Strains were cultured at OD648=0.1 in 24 well plate and butafencil was applied at concentrations of 10^−5,6,7M. After a week OD648 of the cultures was measured.
Cells are allowed to generate to visible colonies. After incubation for a week the most resistant colonies are chosen. To ascertain gene transformation PCR analysis is preformed on wild type and butafenacil or flumioxazin resistant colonies.

The test system of data set [4] is resistant pds transformed algae. The data set is described as follows: Slow released herbicide embedded in photobioreactor lining: resistant transformed algae. In kind it is cell-based. As to conditions: herbicide on inner side of photobioreactor, final concentration 10^−5 to 10^−7M if fully released. The text has this:
(§2) A hydrophobic herbicide/biocide such as flurochloridone or fluridone and/or butafenacil flumioxazin is/are applied using a volatile organic solvent such as xylene on the inner side of the polyethylene algae photobioreactor or pond liner, such that if it were fully released into the subsequent growth medium the concentration would reach a final concentration of 10^−5 to 10^−7M. Transgenically resistant algae or cyanobacteria versus wild-type are inoculated in the treated photobioreactors after the solvent has evaporated. In commercial production, the herbicides can be added during production of the polyethyelene.
(§3) Culture aliquots are removed daily and cell densities of wild types and the transformed algae or cyanobacteria are compared.

The next data set concerns wild type culture. Put plainly: Slow released herbicide embedded in photobioreactor lining: wild type culture. The data set is classed as cell-based. The note with it: herbicide on inner side of photobioreactor, final concentration 10^−5 to 10^−7M if fully released.
From the text: as §2, §3

A further data set has as its system ppo transformant algae. The data set is described as follows: Dose response of ppo transformants versus wild type alga. The data set is classed as cell-based. The note with it: 0.1 μM, 0.3 μM, 0.5 μM in 24 well plates. As for the experimental part:
A dose response curve is generated for the wild type alga and for the transformants. The wild types and the transformant algae are plated in their medium in 24 well plates with increasing concentrations of 0.1 μM, 0.3 μM, 0.5 μM butafenacil or flumioxazin. Algae are plated without the herbicide as a control. […] The most resistant colonies are chosen for further analysis.

The test system of data set [5] is Synechococcus PCC7002 and Synechococcus WH7803. Put plainly: Mixed culture of ppo transformed algae and cyanobacteria contaminants, with and without herbicide. The data set is classed as cell-based. The note with it: mixed culture 10:1 transformant:cyanobacteria, one week liquid culture. Here is the method: To address the question of contaminants, the transformed algae are mixed with cyanobacteria such as Synechococcus PCC7002 and Synechococcus WH7803, which are known to overtake ponds. The transformant and the cyanobacteria are cultured alone and in mixed cultures with and without butafenacil or flumioxazin. The mixed culture is plated in a ratio of 10:1 transformant: cyanobacteria respectively. The cells are allowed to grow for one week in liquid culture, with daily removal of aliquots. These aliquots are counted under the microscope and the ratio of contaminants vs. algae is calculated.

The subject of data set [6] is Chlamydomonas pds transformants. Put plainly: Contamination test: Chlamydomonas pds transformant alone and in mixed culture, with and without flurochloridone. In kind it is cell-based, Chlamydomonas reinhardtii. As to conditions: flurochloridone addition; liquid medium, one week, daily counts under the microscope; mixed culture 10:1. The text has this: (§4) FIGS. 8A and B: Contamination test of Chlamydomonas pds transformant II5 versus the cyanobacterium Synechococcus PCC 7942. Chlamydomonas transformants and the cyanobacterium Synechococcus PCC7942 were inoculated alone and in mixed culture in a ratio of 10:1 with and without flurochloridone. Aliquots were removed daily and counted under the microscope. 8A represents the Chlamydomonas pds transformants counts and 8B represents the cyanobacterium Synechococcus PCC7942 counts.
(§5) To address the question of contaminants, the Chlamydomonas pds transformants were mixed with the cyanobacterium Synechococcus PCC7942, which is known to overtake ponds. A Chlamydomonas pds transformant and the cyanobacterium Synechococcus PCC7942 were inoculated alone and in mixed cultures with and without flurochloridone. The mixed culture was inoculated in a ratio of 10:1 Chlamydomonas pds transformants: Synechococcus PCC7942 wild type, respectively. The cells were allowed to grow for one week in liquid medium, with daily removal of aliquots. Contaminants versus target Chlamydomonas-cells were counted under the microscope (FIG. 8).

A further data set has as its system Synechococcus PCC7942. Put plainly: Contamination test: Synechococcus PCC7942 alone and in mixed culture, with and without flurochloridone. As to conditions: flurochloridone addition; liquid medium, one week, daily counts under the microscope; mixed culture 10:1. The data set is classed as cell-based.
From the text: as §4, §5

A further data set relates to Hydrilla verticillata. The note with it: cited from earlier work.

As for `COC(=O)c1c(C(F)F)nc(C(F)(F)F)c(C2=NCCS2)c1CC(C)C` [thiazopyr], the effect on zooplankton result in data set [1] is given as “killed”. Further, the “effect on wild type algae and cyanobacteria” value in data set [2] is recorded as “do not harm”.

`CSC(=O)c1c(C(F)F)nc(C(F)(F)F)c(C(=O)SC)c1CC(C)C` [dithiopyr]: the effect on zooplankton result in [1] is “killed”. The “effect on wild type algae and cyanobacteria” value in data set [2] is listed as “do not harm”.

Regarding `CCN(CC)c1c([N+](=O)[O-])cc(C(F)(F)F)c(N)c1[N+](=O)[O-]` [dinitramine], the effect on zooplankton entry in data set [1] is “killed”. In [2], the “effect on wild type algae and cyanobacteria” value is on record as “do not harm”.

`CC(C)N(Cc1ccccc1)C(=O)C(C)(C)C` [tebutam]: the effect on zooplankton entry in data set [1] is on record as “killed”. Moreover, the “effect on wild type algae and cyanobacteria” value in data set [2] is given as “do not harm”.

For the compound `CNc1cnn(-c2cccc(C(F)(F)F)c2)c(=O)c1Cl` [norflurazon], the “cross resistance of the flurochloridone resistant material” value (“cross resistance” for short) in data set [3] is recorded as “cross resistant”.

Take `C=CCOC(=O)C(C)(C)OC(=O)c1cc(-n2c(=O)cc(C(F)(F)F)n(C)c2=O)ccc1Cl` [butafenacil]: the wild-type algae growth entry in the data set on wild-type algae is “inhibit”. Further, the “growth of the resistant pds transformed algae” value in [4] is recorded as “unaffected”. Moreover, the “growth of the wild type culture” value in the data set on wild type culture was “completely inhibited”. In addition, the “growth of transformants bearing the resistance gene in dose response” value with ppo transformant algae is reported as “ability to grow at higher concentrations than the wild type”. Besides, in data set [5], the “contaminants in mixed cultures containing the herbicide” value is “decreasing numbers of contaminants”.

`CCC(CC)Nc1c([N+](=O)[O-])cc(C)c(C)c1[N+](=O)[O-]` [pendimethalin]: the effect on zooplankton entry in data set [1] is “killed”. For the same compound, the “effect on wild type algae and cyanobacteria” value in [2] is “do not harm”.

Turning to `C#CCN1C(=O)COc2cc(F)c(N3C(=O)C4=C(CCCC4)C3=O)cc21` [flumioxazin], the wild-type algae growth result in the data set with wild-type algae was “inhibit”. In addition, in data set [4], the “growth of the resistant pds transformed algae” value is recorded as “unaffected”. Further, the “growth of the wild type culture” value in the data set with wild type culture was “completely inhibited”. Besides, the “growth of transformants bearing the resistance gene in dose response” value with ppo transformant algae is given as “ability to grow at higher concentrations than the wild type”. Further, in data set [5], the “contaminants in mixed cultures containing the herbicide” value is given as “decreasing numbers of contaminants”.

As for `CCOP(=S)(NC(C)CC)Oc1cc(C)ccc1[N+](=O)[O-]` (stereo not shown) [butamiphos], the effect on zooplankton entry in data set [1] is reported as “killed”. Besides, in data set [2], the “effect on wild type algae and cyanobacteria” value is given as “do not harm”.

Take `CCC(C)Nc1c([N+](=O)[O-])cc(C(C)(C)C)cc1[N+](=O)[O-]` (stereo not shown) [butralin]: in data set [1], the effect on zooplankton entry was “killed”. Also, the “effect on wild type algae and cyanobacteria” value in data set [2] is given as “do not harm”.

Turning to `O=C1C(Cl)C(CCl)CN1c1cccc(C(F)(F)F)c1` (stereo not shown) [flurochloridone], the “growth of the resistant pds Chlamydomonas cells” value in [6] is on record as “unaffected”. Besides, the “growth of Synechococcus PCC7942 cells” value with Synechococcus PCC7942 is on record as “completely inhibited”. In addition, the “growth of the resistant pds transformed algae” value in [4] is on record as “unaffected”. In the data set with wild type culture, the “growth of the wild type culture” value is recorded as “completely inhibited”.

Take `COP(=S)(NC(C)C)Oc1ccc(C)cc1[N+](=O)[O-]` (stereo not shown) [amiprophos-methyl]: the effect on zooplankton result in data set [1] is given as “killed”. For the same compound, the “effect on wild type algae and cyanobacteria” value in data set [2] was “do not harm”.

Turning to fluridone, in data set [3], the “cross resistance” value is “cross resistant”. Besides, the “growth of the resistant pds transformed algae” value in data set [4] was “unaffected”. Moreover, the “growth of the wild type culture” value with wild type culture is listed as “completely inhibited”. Besides, in the data set with Hydrilla verticillata (fluridone resistant biotypes), the “biomass accumulation, of the content in untreated plants” value was “up to 72%” and the “β-carotene accumulation, of the content in untreated plants” value is reported as at most 77%. In the data set with Hydrilla verticillata (susceptible population), the “biomass accumulation, of the levels found in untreated plants” value is 10% and the “β-carotene accumulation, of the levels found in untreated plants” value was 10%.

For the compound `C#CC(C)(C)NC(=O)c1cc(Cl)cc(Cl)c1` [propyzamide], in [1], the effect on zooplankton entry is given as “killed”. The “effect on wild type algae and cyanobacteria” value in data set [2] was “do not harm”.

Take `COC(=O)c1c(Cl)c(Cl)c(C(=O)OC)c(Cl)c1Cl` [chlorthal-dimethyl]: the effect on zooplankton entry in data set [1] is “killed”. In addition, the “effect on wild type algae and cyanobacteria” value in [2] is “do not harm”.

`C=C(C)CN(CC)c1c([N+](=O)[O-])cc(C(F)(F)F)cc1[N+](=O)[O-]` [ethalfluralin]: in data set [1], the effect on zooplankton entry is recorded as “killed”. The “effect on wild type algae and cyanobacteria” value in [2] is given as “do not harm”.

`CCCCN(CC)c1c([N+](=O)[O-])cc(C(F)(F)F)cc1[N+](=O)[O-]` [benefin]: the effect on zooplankton entry in data set [1] is reported as “killed”. Also, the “effect on wild type algae and cyanobacteria” value in [2] is “do not harm”.

Turning to `CCCN(CCC)c1c([N+](=O)[O-])cc(C(F)(F)F)cc1[N+](=O)[O-]` [trifluralin], the effect on zooplankton entry in data set [1] is “killed”. Also, the “effect on wild type algae and cyanobacteria” value in [2] is reported as “do not harm”.

Take `O=C(Nc1ccc(F)cc1)c1cccc(Oc2cccc(C(F)(F)F)c2)n1` [picolinafen]: the “cross resistance” value in data set [3] is reported as “cross resistant”.
